Columns and labels:
14-3-3σ/ERα [1] = molecular target: T1, 14-3-3σ/ERα (Homo sapiens, UniProt P03372+P31947); test: Fluorescence anisotropy compound titration, FAM-labeled ERα peptide; format: binding; conditions: 10 nM ERα-FAM labeled peptide, 1 µM 14-3-3σ, overnight incubation (24 h); read-out: EC50 value ERα (FA compound titration)
T1 construct: The 14-3-3 σ isoform (full-length for mass spectrometry and fluorescence anisotropy assays, ΔC for crystallography); made in house; host or cells: E. coli Rosetta 2(DE3)pLysS, pPROEX HTb vector
Text: (§1) Two orthogonal assays were developed for screening. For the primary assay, mass spectrometry (MS) was used to monitor the formation of the covalent bond between the compound and the native cysteine (Cys38 on 14-3-3σ) (Figure 1D). The assay was first performed in the absence of peptide to determine binding to 14-3-3σ only (apo screening, D1) and then in the presence of both 14-3-3σ and the peptide as an indication of how much the peptide stabilized compound binding (D2). […] As a secondary assay, fluorescence anisotropy (FA) was used. In this case, compounds were titrated to mixtures of 14-3-3σ and FAM-labeled peptides. […] Thus, the two assays are highly complementary; the MS assay reports on compound binding and the FA assay reports on peptide binding. […]
(§2) diluted in buffer (10 mM HEPES, pH 7.5, 150 mM NaCl, 0.1% Tween20, 1 mg/mL Bovine Serum Albumin (BSA; Sigma-Aldrich). Final DMSO in the assay was always 1%. Dilution series of 14-3-3 proteins or compounds were made in […]
(§3) Compound titrations were made by titrating the compound in a 2-fold dilution series (starting at 500 or 1000 µM) to a mix of fluorescein-labeled peptide (10 nM) and 14-3-3σ (concentration at approximately the EC20 to EC30 value of the protein-peptide complex; 1 µM for ERα and 5 µM for C-RAF). Using the ~EC25 value makes the assay sensitive for measuring an increase in PPI formation. Fluorescence anisotropy measurements were performed directly and after overnight incubation at room temperature. […]
(§4) Wells containing only FAM-peptide were used to set as G-factor at 35 mP. Data reported are at endpoint. EC50 and apparent Kd values were obtained from fitting the data with a four-parameter logistic model (4PL) in GraphPad Prism 7 for Windows. Data was obtained and averaged based on either three (compound titrations) or two (protein titrations) independent experiments.

14-3-3σ/ERα [2] = molecular target: T1, 14-3-3σ/ERα; test: Mass spectrometry dose response, compound binding to 14-3-3σ in the presence of ERα phosphopeptide; conditions: 100 nM compound, 100 nM 14-3-3σ, ERα-peptide 2 µM
Text: as §1
(§5) Mass spectrometry dose response assays were performed on a Waters Acquity UPLC/ Xevo G2-XS Q-Tof mass spectrometer. A Waters UPLC Protein BEH-C4 Column (300 Å, 1.7 μm, 2.1 mm x 50 mm) was used to desalt the samples prior to application on the mass spectrometer. For 19-point MS dose responses, 50 mM compound stocks in DMSO were serially diluted in 3-fold increment in a master plate, then 1000 nl of the compounds were transferred in the assay plates. Master mixes containing 100 nM full-length wild type 14-3-3σ in the absence or presence of […]
(§6) Assay buffer was TRIS (10 mM, pH 8.0) and final volume per well was 50 μl, with final top concentration of compounds dose response series at 1 mM. The reaction mixtures were incubated for 1h at rt before subjected to MS. Four measurements (1h, 8h, 16h, 24h) were performed for time-course experiments. The injection volume for each sample was 6 μl. 24 μl of sample were needed for the time-course experiments, so the total volume in the assay plate was adjusted to 50 μl, to account for the dead volume in the injections. Data collection and automated processing followed a custom workflow, as previously described.1 z Plots were created using GraphPad Prism with the log(agonist) vs. response (variable slope, four parameters) fitting model. […]

14-3-3σ/C-RAF [3] = molecular target: T2, 14-3-3σ/C-RAF (Homo sapiens, UniProt P31947); test: Fluorescence anisotropy compound titration, FAM-labeled C-RAF peptide; format: binding; conditions: 10 nM C-RAF-FAM labeled peptide, 5 µM 14-3-3σ, overnight incubation; read-out: EC50 value C-RAF (FA compound titration)
T2 construct: The 14-3-3 σ isoform (full-length for mass spectrometry and fluorescence anisotropy assays, ΔC for crystallography); made in house; host or cells: E. coli Rosetta 2(DE3)pLysS, pPROEX HTb vector
T2 sequence (P31947 1-248): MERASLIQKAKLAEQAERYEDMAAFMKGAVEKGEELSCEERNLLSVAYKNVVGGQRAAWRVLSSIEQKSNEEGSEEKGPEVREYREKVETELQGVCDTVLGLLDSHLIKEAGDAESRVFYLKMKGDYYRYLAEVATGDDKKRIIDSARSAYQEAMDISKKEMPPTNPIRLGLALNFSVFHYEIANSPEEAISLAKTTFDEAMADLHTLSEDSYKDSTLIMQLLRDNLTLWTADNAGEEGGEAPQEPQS
Text: as §1, §2, §3, §4

14-3-3σ = molecular target: T3, 14-3-3σ (Homo sapiens, UniProt P31947); test: Mass spectrometry dose response, compound binding to 14-3-3σ in the absence of peptide (apo); conditions: 100 nM compound, 100 nM 14-3-3σ
T3 construct: The 14-3-3 σ isoform (full-length for mass spectrometry and fluorescence anisotropy assays, ΔC for crystallography); made in house; host or cells: E. coli Rosetta 2(DE3)pLysS, pPROEX HTb vector
T3 sequence (P31947 1-248): T2 sequence (P31947 1-248)
Text: as §1, §5, §6

14-3-3σ/C-RAF [4] = molecular target: T2, 14-3-3σ/C-RAF; test: Mass spectrometry dose response, compound binding to 14-3-3σ in the presence of C-RAF phosphopeptide; conditions: 100 nM compound, 100 nM 14-3-3σ, C-RAF peptide 18 µM
Text: as §1, §5, §6

| SMILES | EC50 (14-3-3σ/ERα [1]) [µM] | Percentage (%) bound of compound to 14-3-3σ, ERα 1h (14-3-3σ/ERα [2]) [%] | Percentage (%) bound of compound to 14-3-3σ, ERα 8h (14-3-3σ/ERα [2]) [%] | Percentage (%) bound of compound to 14-3-3σ, ERα 16h (14-3-3σ/ERα [2]) [%] | Percentage (%) bound of compound to 14-3-3σ, ERα 24h (14-3-3σ/ERα [2]) [%] | EC50 (14-3-3σ/C-RAF [3]) [µM] | Percentage (%) bound of compound to 14-3-3σ, APO 1h (14-3-3σ) [%] | Percentage (%) bound of compound to 14-3-3σ, APO 8h (14-3-3σ) [%] | Percentage (%) bound of compound to 14-3-3σ, APO 16h (14-3-3σ) [%] | Percentage (%) bound of compound to 14-3-3σ, APO 24h (14-3-3σ) [%] | Percentage (%) bound of compound to 14-3-3σ, CRAF 1h (14-3-3σ/C-RAF [4]) [%] | Percentage (%) bound of compound to 14-3-3σ, CRAF 8h (14-3-3σ/C-RAF [4]) [%] | Percentage (%) bound of compound to 14-3-3σ, CRAF 24h (14-3-3σ/C-RAF [4]; 24h) [%] | Percentage (%) bound of compound to 14-3-3σ, CRAF 24h (14-3-3σ/C-RAF [4]; head prints 24h) [%] |
| --- | --- | --- | --- | --- | --- | --- | --- | --- | --- | --- | --- | --- | --- | --- |
| O=C(CCl)NCC1CCN(C(=O)C2(Oc3ccc(Cl)cc3)CC2)CC1 [compound 93] | 68 ± 2 | 0 | 0.9 | 1.1 | 1.7 | > 150 | 0 | 0 | 0 | 0 | 0.1 | 0.1 | 2.3 | 0.1 |
| CC(C)(Oc1ccc(Cl)cc1)C(=O)N1CCC(CNC(=O)CCl)CC1 [compound 27] | 19 ± 1 | 1.4 | 6.4 | 14.6 | 30.6 | 16 ± 4 | 0.0 | 1.0 | 1.4 | 2.0 | 4.1 | 10.6 | 28.3 | 19.2 |
| O=C(CCl)NCC1CCN(C(=O)C2(Oc3ccc(Cl)cc3)CCOCC2)CC1 [compound 126] | 9 ± 2 | 1.7 | 6.2 | 9.1 | 15.1 | > 150 | 0 | 0 | 0 | 1.0 | 0.0 | 1.0 | 4.7 | 3.6 |
| O=C(CCl)NCC1CCN(C(=O)C2(Nc3ccccc3)CCC2)CC1 [compound 98] | > 150 | 0 | 0 | 0 | 0 |  | 0 | 1.5 | 4.0 | 4.0 | 0 | 0 | 0 | 0 |
| CC(C)(Oc1ccc(Cl)cc1)C(=O)N1CCC(CCC(=O)CCl)CC1 [compound 37] | 44 ± 2 | 56.4 | 97.6 | 100 | 100 |  | 12.0 | 40.8 | 72.0 | 90.3 | 98.8 | 99.9 | 100 | 99.9 |
| C=CS(=O)(=O)NCC1CCN(C(=O)C(C)(C)Oc2ccc(Cl)cc2)CC1 [compound 17] | 33 ± 1 | 0.8 | 4.7 | 11.0 | 18.8 |  | 0 | 0 | 1.0 | 1.0 | 4.7 | 8.0 | 32.4 | 11.6 |
| O=C(CCl)CCC1CCN(C(=O)C2(Nc3ccc(Cl)cc3)CCOCC2)CC1 [compound 156] | 5 ± 0.3 | 81.1 | 97.0 | 100 | 100 |  | 18.0 | 35.7 | 70.7 | 95.1 | 54.7 | 62.3 | 99.4 | 92.0 |
